Results reported in ChEMBL document CHEMBL4406802, “Human disorders associated with inflammation and the evolving role of natural products to overcome” (Eur J Med Chem, 2019).
Values after ≈ are worked out from the molar mass of the structure shown.

Assays:
[1] = target: Prostaglandin G/H synthase 2 (Homo sapiens) (UniProt P35354); test: Inhibition of COX2 (unknown origin) at 0.01 mM using arachidonic acid as substrate preincubated for 15 mins followed by arachidonic acid addition measured after […] by ELISA relative to control
[2] = target: T1, Prostaglandin G/H synthase 2 (Ovis aries, UniProt P79208); test: Inhibition of ovine COX2
T1 sequence (P79208 whole entry): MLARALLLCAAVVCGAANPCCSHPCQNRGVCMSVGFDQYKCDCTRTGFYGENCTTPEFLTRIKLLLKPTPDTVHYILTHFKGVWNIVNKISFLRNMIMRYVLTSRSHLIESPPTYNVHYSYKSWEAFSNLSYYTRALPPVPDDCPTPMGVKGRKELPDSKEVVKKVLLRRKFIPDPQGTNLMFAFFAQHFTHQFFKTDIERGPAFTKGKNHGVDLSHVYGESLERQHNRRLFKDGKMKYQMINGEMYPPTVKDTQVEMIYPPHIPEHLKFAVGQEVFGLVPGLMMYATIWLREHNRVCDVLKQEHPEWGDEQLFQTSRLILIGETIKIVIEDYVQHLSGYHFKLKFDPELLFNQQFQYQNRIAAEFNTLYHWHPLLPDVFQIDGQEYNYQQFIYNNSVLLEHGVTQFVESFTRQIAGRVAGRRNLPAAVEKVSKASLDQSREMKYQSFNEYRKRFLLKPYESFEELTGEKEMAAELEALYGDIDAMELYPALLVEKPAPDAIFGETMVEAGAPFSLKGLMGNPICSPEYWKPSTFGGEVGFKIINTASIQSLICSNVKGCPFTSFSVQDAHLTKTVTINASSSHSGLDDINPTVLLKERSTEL

[3] = target: T2, Prostaglandin G/H synthase 1 (Ovis aries, UniProt P05979); test: Inhibition of ovine COX1
T2 sequence (P05979 whole entry): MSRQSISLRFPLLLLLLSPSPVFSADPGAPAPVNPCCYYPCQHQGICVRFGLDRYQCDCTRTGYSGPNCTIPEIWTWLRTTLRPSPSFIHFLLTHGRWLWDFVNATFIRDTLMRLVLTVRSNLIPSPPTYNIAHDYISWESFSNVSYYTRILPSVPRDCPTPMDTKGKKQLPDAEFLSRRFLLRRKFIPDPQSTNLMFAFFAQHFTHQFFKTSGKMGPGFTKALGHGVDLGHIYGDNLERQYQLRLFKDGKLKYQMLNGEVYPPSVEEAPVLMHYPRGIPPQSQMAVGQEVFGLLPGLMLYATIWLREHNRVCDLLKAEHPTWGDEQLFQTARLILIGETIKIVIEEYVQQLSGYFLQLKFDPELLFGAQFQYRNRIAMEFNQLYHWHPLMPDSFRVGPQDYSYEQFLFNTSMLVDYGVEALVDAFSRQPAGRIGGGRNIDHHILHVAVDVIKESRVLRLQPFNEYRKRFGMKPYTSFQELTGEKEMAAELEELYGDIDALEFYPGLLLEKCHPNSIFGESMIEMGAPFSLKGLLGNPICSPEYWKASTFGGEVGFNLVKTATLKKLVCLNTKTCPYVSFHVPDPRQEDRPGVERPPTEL

[4] = target: T1, Prostaglandin G/H synthase 2; test: Inhibition of ovine COX2 by EIA
[5] = Inhibition of ovine 5-lox by EIA; set-up: species or system Ovis aries
[6] = target: Nitric oxide synthase, inducible (Homo sapiens, UniProt P35228); test: Inhibition of iNOS (unknown origin)
Interleukin-1 beta = Interleukin-1 beta (Homo sapiens, UniProt P01584); test: Inhibition of IL1-beta (unknown origin)
RAW264.7 [7] = test: Antiinflammatory activity against mouse RAW264.7 cells assessed as inhibition of LPS induced iNOS at 30 uM preincubated for 1 hr followed by LPS stimulation measured after 18 hrs relative to control; type: functional
RAW264.7 [8] = test: Antiinflammatory activity against mouse RAW264.7 cells assessed as inhibition of LPS induced COX2 at 30 uM preincubated for 1 hr followed by LPS stimulation measured after 18 hrs relative to control; type: functional
RAW264.7 [9] = test: Antiinflammatory activity in mouse RAW264.7 cells assessed as inhibition of nitric oxide production; type: functional, cell-based
THP-1 [10] = test: Antiinflammatory activity against human THP1 cells assessed as inhibition of LPS induced TNF-alpha at 40 uM preincubated for 30 mins followed by LPS stimulation measured after 24 hrs by ELISA relative to control; type: functional
[11] = Inhibition of soybean 15-LOX using linoleic acid as substrate preincubated for 5 mins followed by substrate addition and measured after 20 mins by spectrophotometric analysis; set-up: species or system Glycine max
RAW264.7 [12] = test: Antiinflammatory activity in mouse RAW264.7 cells assessed as inhibition of LPS-induced nitric oxide production at […] after 24 hrs by Griess reagent based assay relative to control; type: functional; set-up: dose or concentration left out as unconfirmed; conditions: RAW264.7, 24 h
[13] = target: T3, Prostaglandin G/H synthase 2 (Homo sapiens) (UniProt P35354); test: Inhibition of COX2 (unknown origin) at 20 uM relative to control
T3 sequence (whole entry): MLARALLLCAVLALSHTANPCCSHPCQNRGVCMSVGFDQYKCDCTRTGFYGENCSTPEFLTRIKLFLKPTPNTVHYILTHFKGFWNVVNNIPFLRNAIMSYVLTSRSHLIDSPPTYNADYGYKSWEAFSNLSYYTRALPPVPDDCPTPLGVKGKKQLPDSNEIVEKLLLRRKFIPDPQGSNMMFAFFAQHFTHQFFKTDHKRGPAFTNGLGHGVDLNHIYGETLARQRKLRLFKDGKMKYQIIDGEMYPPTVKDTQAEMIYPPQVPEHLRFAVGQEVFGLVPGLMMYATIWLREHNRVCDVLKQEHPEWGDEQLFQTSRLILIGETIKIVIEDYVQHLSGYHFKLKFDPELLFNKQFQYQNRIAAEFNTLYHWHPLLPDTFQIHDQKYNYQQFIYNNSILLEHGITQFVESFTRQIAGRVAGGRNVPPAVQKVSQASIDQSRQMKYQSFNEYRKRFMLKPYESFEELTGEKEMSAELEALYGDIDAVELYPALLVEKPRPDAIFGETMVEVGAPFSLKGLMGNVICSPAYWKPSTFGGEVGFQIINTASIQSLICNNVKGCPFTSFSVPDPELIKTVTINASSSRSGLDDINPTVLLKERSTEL

[14] = target: T1, Prostaglandin G/H synthase 2; test: Inhibition of ovine COX2 using arachidonic acid as substrate by enzyme immunoassay
RAW264.7 [15] = test: Antiinflammatory activity in mouse RAW264.7 cells assessed as inhibition of LPS-induced nitric oxide production after 24 hrs; type: functional, cell-based; conditions: RAW264.7, 24 h
[16] = target: T3, Prostaglandin G/H synthase 2 (Homo sapiens); test: Inhibition of COX2 (unknown origin) at […] using arachidonic acid as substrate preincubated for 15 mins followed by arachidonic acid addition measured after 2 mins by ELISA relative to control
[17] = target: T4, Polyunsaturated fatty acid 5-lipoxygenase (Homo sapiens) (UniProt P09917); test: Inhibition of 5-lox (unknown origin) at 20 uM relative to control
T4 sequence (whole entry): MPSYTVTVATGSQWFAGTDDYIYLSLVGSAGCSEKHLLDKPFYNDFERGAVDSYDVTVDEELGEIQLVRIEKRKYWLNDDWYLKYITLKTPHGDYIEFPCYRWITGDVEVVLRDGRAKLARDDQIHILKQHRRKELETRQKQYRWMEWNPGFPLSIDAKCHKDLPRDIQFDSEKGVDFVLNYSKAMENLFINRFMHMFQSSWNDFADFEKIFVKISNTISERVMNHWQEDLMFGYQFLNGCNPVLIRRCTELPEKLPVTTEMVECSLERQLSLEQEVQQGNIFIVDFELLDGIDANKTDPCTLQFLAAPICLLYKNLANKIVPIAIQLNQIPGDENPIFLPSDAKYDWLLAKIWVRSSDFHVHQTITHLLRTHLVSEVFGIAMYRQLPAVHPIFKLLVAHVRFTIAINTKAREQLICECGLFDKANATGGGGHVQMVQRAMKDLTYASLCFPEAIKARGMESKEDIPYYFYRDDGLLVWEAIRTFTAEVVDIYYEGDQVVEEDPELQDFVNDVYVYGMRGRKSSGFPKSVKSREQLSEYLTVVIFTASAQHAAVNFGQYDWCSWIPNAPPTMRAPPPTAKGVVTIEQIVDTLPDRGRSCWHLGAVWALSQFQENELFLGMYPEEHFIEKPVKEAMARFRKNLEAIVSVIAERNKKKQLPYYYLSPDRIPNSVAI

RAW264.7 [18] = test: Antiinflammatory activity in mouse RAW264.7 cells assessed as inhibition of LPS-induced nitric oxide production at 50 uM preincubated for 2 hrs followed by LPS stimulation measured after 24 hrs by Griess reagent based assay relative to control; type: functional
RAW264.7 [19] = test: Antiinflammatory activity in mouse RAW264.7 cells assessed as inhibition of LPS-induced nitric oxide production at 20 uM preincubated for 2 hrs followed by LPS stimulation measured after 24 hrs by Griess reagent based assay relative to control; type: functional
RAW264.7 [20] = test: Antiinflammatory activity in mouse RAW264.7 cells assessed as inhibition of LPS-induced nitric oxide production at 10 uM preincubated for 2 hrs followed by LPS stimulation measured after 24 hrs by Griess reagent based assay relative to control; type: functional
RAW264.7 [21] = test: Antiinflammatory activity in mouse RAW264.7 cells assessed as inhibition of LPS-induced nitric oxide production; type: functional, cell-based
BV-2 = test: Antiinflammatory activity in mouse BV2 cells assessed as inhibition of LPS-induced nitric oxide production; type: functional, cell-based
THP-1 [22] = test: Antiinflammatory activity against human THP1 cells assessed as inhibition of LPS induced TNF-alpha at 100 uM preincubated for 30 mins followed by LPS stimulation measured after 24 hrs by ELISA relative to control; type: functional

Sequence of Interleukin-1 beta (P01584 117-269 limits assumed): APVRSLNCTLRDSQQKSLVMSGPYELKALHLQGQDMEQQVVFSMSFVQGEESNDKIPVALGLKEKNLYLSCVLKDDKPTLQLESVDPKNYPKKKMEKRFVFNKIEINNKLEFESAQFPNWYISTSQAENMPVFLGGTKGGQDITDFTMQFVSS
Sequence of Nitric oxide synthase, inducible (P35228 whole entry): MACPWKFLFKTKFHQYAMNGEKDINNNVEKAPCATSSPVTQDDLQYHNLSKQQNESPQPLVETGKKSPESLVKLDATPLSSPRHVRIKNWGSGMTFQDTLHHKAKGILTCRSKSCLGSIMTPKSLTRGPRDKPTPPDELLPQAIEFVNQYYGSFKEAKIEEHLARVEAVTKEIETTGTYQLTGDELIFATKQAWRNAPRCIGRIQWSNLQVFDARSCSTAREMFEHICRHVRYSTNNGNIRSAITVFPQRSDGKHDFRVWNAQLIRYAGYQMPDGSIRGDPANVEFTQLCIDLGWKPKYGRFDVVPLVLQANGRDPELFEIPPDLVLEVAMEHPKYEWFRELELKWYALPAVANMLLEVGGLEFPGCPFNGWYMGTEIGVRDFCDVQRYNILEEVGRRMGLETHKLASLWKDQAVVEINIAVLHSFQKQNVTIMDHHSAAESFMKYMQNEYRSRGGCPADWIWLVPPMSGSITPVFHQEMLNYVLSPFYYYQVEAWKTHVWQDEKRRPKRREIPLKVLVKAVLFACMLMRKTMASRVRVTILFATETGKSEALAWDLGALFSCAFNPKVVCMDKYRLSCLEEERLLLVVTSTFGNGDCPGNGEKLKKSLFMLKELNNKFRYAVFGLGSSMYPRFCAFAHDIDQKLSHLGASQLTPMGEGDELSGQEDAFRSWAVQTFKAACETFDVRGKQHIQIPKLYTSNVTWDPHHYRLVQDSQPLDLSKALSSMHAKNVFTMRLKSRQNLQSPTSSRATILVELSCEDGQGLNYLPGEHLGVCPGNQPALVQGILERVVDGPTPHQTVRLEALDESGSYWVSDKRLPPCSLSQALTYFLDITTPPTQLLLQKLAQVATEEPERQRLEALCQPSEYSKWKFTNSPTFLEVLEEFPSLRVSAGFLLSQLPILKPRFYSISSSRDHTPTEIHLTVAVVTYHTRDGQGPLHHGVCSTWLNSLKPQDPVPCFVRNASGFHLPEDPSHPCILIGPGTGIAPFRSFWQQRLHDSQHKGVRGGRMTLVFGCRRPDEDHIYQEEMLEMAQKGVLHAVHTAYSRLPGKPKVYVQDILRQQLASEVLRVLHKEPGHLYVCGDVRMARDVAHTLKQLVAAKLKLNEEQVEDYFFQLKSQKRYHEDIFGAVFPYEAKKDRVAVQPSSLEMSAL

SMILES: CC1(C)NC(CCc2ccc(O)cc2)CC(=O)C1Cc1ccc(O)cc1 (centres undefined)
- inhibition [1]: 83.3%

SMILES: CC(C)=CCCC(C(=O)O)C1CNC(=N)N1 (centres undefined)
- IC50 [2]: 830 µM
- IC50 [3]: 300 µM

SMILES: CC(C)=CCC/C(C)=C/Cc1c(O)cc(O)c(C(=O)C(C)C)c1O
- IC50 [4]: 29.9 µM
- IC50 [5]: 2.2 µM

SMILES: C/C=C(\C)C(=O)O[C@H]1[C@H](OC(C)=O)[C@@]23C[C@@]1(O)O[C@H]1C[C@]4(C)C(=CC[C@H]4c4ccoc4)[C@](C)(C(=O)C[C@H]2C(C)C)C13 (some centres undefined)
- IC50 [6]: 7.8 µM
- IC50 (Interleukin-1 beta): 7.8 µM

SMILES: CC1(C)CC[C@]2(C(=O)O[C@@H]3O[C@H](CO)[C@@H](O)[C@H](O)[C@H]3O)CC[C@]3(C)C(=CC[C@@H]4[C@@]5(C)CC[C@H](O[C@@H]6OC[C@@H](O)[C@H](O)[C@H]6O[C@@H]6O[C@H](CO)[C@@H](O)[C@H](O)[C@H]6O)C(C)(C)[C@@H]5CC[C@]43C)[C@@H]2C1
- inhibition at 30 µM (RAW264.7 [7]): 88%
- inhibition at 30 µM (RAW264.7 [8]): 54.6%

SMILES: COc1cc2c(cc1C)C1=C(C)C(=O)OC1C(O)C2C (centres undefined)
- IC50 (RAW264.7 [9]): 51.9 µM

SMILES: O=C(OC1Cc2c(O)cc(O)cc2OC1c1cc(O)c(O)c(O)c1)c1cc(O)c(O)c(O)c1 (centres undefined)
- inhibition at 40 µM (THP-1 [10]): 39.1%

SMILES: O=c1c2cc(O)c(O)cc2oc2cc(O)cc(O)c12
- IC50 [11]: 0.04461 µg/mL (≈ 0.171 µM)
- inhibition (RAW264.7 [12]): 70.8%

SMILES: COc1c(O)cc2c(=O)oc3c(OC)c(O[C@@H]4O[C@H](CO)[C@@H](O)[C@H](O)[C@H]4O)cc4c(=O)oc1c2c34
- inhibition at 40 µM (THP-1 [10]): 47.8%

SMILES: C=C(C)[C@H](CC=C(C)C)C[C@]12C[C@H](CC=C(C)C)C(C)(C)[C@](CC=C(C)C)(C(=O)C(C(=O)c3ccc(O)c(O)c3)=C1O)C2=O
- IC50 [11]: 0.04305 µg/mL (≈ 0.0714 µM)

SMILES: CCCCCC(=O)/C=C/C=C\CCCCCCCC(=O)O
- inhibition [13]: 16.6%

SMILES: CCOC(=O)[C@H](CO)NC(=O)c1cccc(O)c1O
- IC50 [14]: 2.8 µM

SMILES: C=C1CC[C@]2(C(=O)O[C@@H]3O[C@H](CO)[C@@H](O)[C@H](O)[C@H]3O)CC[C@]3(C)C(=CC[C@@H]4[C@@]5(C)CC[C@H](O[C@@H]6OC[C@@H](O)[C@H](O)[C@H]6O[C@@H]6O[C@H](CO)[C@@H](O)[C@H](O)[C@H]6O)C(C)(C)[C@@H]5CC[C@]43C)[C@@H]2[C@H]1C
- inhibition at 30 µM (RAW264.7 [7]): 75.9%
- inhibition at 30 µM (RAW264.7 [8]): 40.9%

SMILES: C=CC(C)(CCC=C(C)C)c1c(O)cc2c(c1O)C(=O)C[C@@H](c1ccc(O)c(O)c1)O2 (some centres undefined)
- IC50 (RAW264.7 [15]): 3.32 µM

SMILES: O=C(/C=C/CCc1ccc(O)cc1)CCc1ccc(O)cc1
- inhibition [16]: 98.4%

SMILES: COc1cc(C2OCC3C(c4cc(OC)c(O)c(OC)c4)OCC23)cc(OC)c1O (centres undefined)
- inhibition [17]: 28.5%

SMILES: COc1cc(C2Oc3cc(/C=C/COC(=O)CC(C)C)cc(OC)c3OC2COC(=O)CC(C)C)cc(OC)c1O (centres undefined)
- inhibition [17]: 16.1%

SMILES: COc1cc(/C=C/c2ccccc2)c(C(=O)O)c(O)c1CC=C(C)C
- inhibition at 50 µM (RAW264.7 [18]): 40.9%
- inhibition at 20 µM (RAW264.7 [19]): 30.6%
- inhibition at 10 µM (RAW264.7 [20]): 21.2%

SMILES: C=C1[C@@H]([C@@]2(C)[C@@H](O)CC(=O)C(C)(C)[C@@H]2[C@@H](O)C(=O)OC)CC[C@@]2(C)[C@H](C3=C[C@@H](O)CC3=O)CC(=O)C[C@]12O
- IC50 (RAW264.7 [21]): 5.04 µM
- IC50 (BV-2): 4.97 µM

SMILES: C[C@@H]1O[C@@H](Oc2c(-c3cc(O)c(O)c(O)c3)oc3cc(O)cc(O)c3c2=O)[C@H](O)[C@H](O)[C@H]1O
- inhibition at 100 µM (THP-1 [22]): 19.5%
